Tests used:
[1] = test system: P. aeruginosa, PAM1723, overexpressing the MexAB-OprM efflux pump; assay: Levofloxacin potentiation checkerboard assay (broth microdilution); format: cell-based
Experimental: Stock solution was stored at −80° C.
The checkerboard assay was performed in microtiter plates. […] EPIs were diluted in the y axis, each row containing an equal concentration of an EPI. The result of these manipulations was that each well of the microtiter plate contains a unique combination of concentrations of the two agents. The assay was performed in MHB with a final bacterial inoculum of 5×10^5 CFU/ml (from an early-log phase culture). Microtiter plates were incubated during 20 h at 35° C. and were read using a microtiterplate reader (Molecular Devices) at 650 nm as well as visual observation using a microtiter plate-reading mirror.

[2] = In vitro stability in rat serum and tissue homogenates (LC/MS/MS); format: in vitro ADME
Experimental: To test the stability of the compounds in vitro, samples were prepared and analyzed by LC/MS/MS according to the following procedure.
Homogenization: A chunk of fresh tissue was weighed and mixed with saline at 1:1 ratio (w/v) in a 12×75 mm polypropylene round bottom tube. The mixture was homogenized with a Polytron homogenizer (on ice, 3×10 seconds with 10 second intervals at the setting of 7).
Incubation and TCA-precipitation: An appropriate amount of a tissue homogenate was pre-warmed at 37° C. for 2 minutes in an Eppendorf tube. The compound to be tested was added to the tube to a final concentration of 2 μg/ml, mixed, and a 60 μl aliquot was immediately taken (as 0 hour sample) and mixed with 120 μl of 4% TCA (trichloroacetic acid) in an Eppendorf tube. The temperature of the tube containing the rest of the tissue sample was returned to 37° C. for incubation. Later, samples were taken as scheduled and mixed with TCA as described above. Plasma and lavage samples were directly incubated with the compounds without addition of saline and homogenization.
LC/MS/MS sample vial preparation: TCA-precipitated sample tubes were vortexed for 30 seconds, centrifuged in a microfuge at top speed (13.2 k rpm) for 5 minutes. The supernatant was collected. The pH was neutralized to about 3.5 with ammonium acetate buffer. The sample (45 μl) was transferred to a glass LC/MS/MS vial (Kimble, 11 mm, 1.5 ml) and 5 μl of an internal standard was added to a final concentration of 500 ng/ml. LC/MS/MS analysis was performed in Chemistry Department of San Diego State University.
LC/MS/MS protocol: Thermo-Finnigan TSQ Quantum triple sector mass spectrometer with electrospray (ESI) ionization was used to analyze the samples. The operation conditions were: Mobile phase of pH 3.00 water/formic acid: acetonitrile-methanol (45%:5%:50% by volume); Thermo-Keystone Betabasic C-18 column (2.1 mm×50 mm) operated at 0.100 mL/min.
Many proteases responsible for degrading EPI compounds are located in […]. Lysozymes typically have an acidic pH (about 4.8-5), whereas the pH in tissue homogenates that were prepared was higher (kidney, pH 6.8; liver, pH 6.6; and lung, pH 7.5). To test the effect of tissue homogenates closer to physiological conditions, the pH was lowered to about 6 by adding acetic acid to the tissue homogenates and compound stability was tested. FIG. 2 depicts the stability of compounds 1 and 3 at different pH. […] The pH-dependent degradation of compound 3 was especially evident in kidney homogenates.
FIG. 4 is a bar graph depicting the stability of compound 3 in the supernatant and pellet of kidney tissue homogenates.

[3] = Rat serum pharmacokinetics after IV bolus administration; format: in vivo; details: in words
Experimental: Rat serum pharmacokinetics of compounds 1, 2, 3 and 4 was evaluated after IV bolus administration (FIG. 11). FIG. 11 depicts the serum concentrations as a function of time.

[4] = Tissue levels in rat six-hour after 8.4 mg/kg IV bolus; format: in vivo; details: rat kidney, liver and lung; 8.4 mg/kg IV bolus; in words
Experimental: Tissue levels of compounds 1, 2, 3 and 4 were evaluated in kidney, liver and lung six-hour after 8.4 mg/kg IV bolus administration. FIG. 13 depicts the levels as a function of time.
Compound 67, which is the expected metabolite of proteolytic intracellular degradation of compound 3, was detected in rat tissues after IV infusion, confirming the tissue-specific degradation of compound 3 (Tables 9A, B).

For `NCCC[C@H](N)C(=O)N[C@@H](CCc1ccccc1)C(=O)Nc1cnc2ccccc2c1` [Compound 2, 2-(S),5-Diamino-pentanoic acid [3-phenyl-1-(S)-(quinolin-3-ylcarbamoyl)-propyl]-amide], the “Antibiotic (levofloxacin) MIC in the presence of EPI” value (“Antibiotic (levofloxacin) MIC” below) ([1]; EPI 0 μg/ml (levofloxacin alone)) was 2 µg/mL, the “Antibiotic (levofloxacin) MIC” value ([1]; EPI 1.25 μg/ml) was 2 µg/mL and the “Antibiotic (levofloxacin) MIC” value ([1]; EPI 5 μg/ml) was 2 µg/mL. For the same compound, the “Antibiotic (levofloxacin) MIC” value ([1]; EPI 10 μg/ml) was 1 µg/mL, the “Antibiotic (levofloxacin) MIC” value ([1]; EPI 20 μg/ml) was 0.125 µg/mL and the “Antibiotic (levofloxacin) MIC” value ([1]; EPI 40 μg/ml) was 0.06 µg/mL. The “Antibiotic (levofloxacin) MIC” value ([1]; EPI 80 μg/ml) was 0.03 µg/mL, the “Antibiotic (levofloxacin) MIC” value ([1]; EPI […]) was 2 µg/mL and the MPC8 ([1]; EPI concentration necessary to increase susceptibility to levofloxacin eight-fold) was 20 µg/mL. For the same compound, the “stability in rat serum” value ([2]; in words) was “intermediately stable”, the “compound left in serum after 1.5 hr of incubation” value ([2]; rat serum) was “about half” and the “compound left in serum after 4 hr” value ([2]; rat serum) was “almost all gone”. The “compound left in kidney and liver after the first 40 minutes of incubation” value ([2]; rat tissue homogenates) was “Hardly any was left”, the “stability in kidney and liver” value ([2]; rat tissue homogenates, in words) was “very unstable” and the “serum levels after IV bolus administration” value [3] was “decreased more rapidly”. The “tissue levels at 6 hours after IV injection” value [4] was “below the detectable level”.
